In patent US9663511B2, “Sphingosine 1-phosphate receptor antagonists” (ARROYO BIOSCIENCES, LLC, priority 2012, dated 2017):
Values joined by “and” are separate entries in the source; they are usually repeats but may differ in a detail not shown here. Identical values can stand only once. Like-named read-outs stand apart in the source and are kept apart here.

How the values were obtained:
S1P2 receptor = S1P2 receptor (Homo sapiens (Human), UniProt O95136); experiment: Antagonist assay (FLIPR TETRA, inhibition of reference agonist EC80) on S1P2; format: cell-based; settings: tested as the citrate salt
Procedure: (§1) Antagonist percentage inhibition determinations were obtained by assaying sample compounds and referencing the control (EC80) wells for each profiled (GPCR) which evaluated binding to S1P2 and S1P5 receptors. The samples were run using a single addition assay protocol. The protocol design is as follows.
(§2) Unless specified otherwise, the sample compounds were diluted in 100% anhydrous DMSO including all dilutions. The compounds were tested as the citrate salt (1 equivalent per molecule). If the sample compound is provided in a different solvent all master stock dilutions are performed in the specified solvent. All control wells contained identical solvent final concentrations as the sample compound wells.
(§3) The sample compounds were transferred from a master stock solution into a daughter plate that was used in the assay. Each sample compound was diluted into an assay buffer (1×HBSS with 20 mM HEPES, 2.5 mM Probenecid, and 0.4% Free Fatty Acid BSA) at an appropriate concentration to obtain final specified concentrations.
(§4) Using the EC80 values that were determined real-time, stimulated all pre-incubated sample compounds and reference antagonists (if applicable) were compared with the EC80 values of reference agonist. These were read for 180 seconds using the FLIPR^TETRA (This assay added reference agonist to respective wells-then fluorescences measurements were collected to calculate IC50 values). All plates were subjected to appropriate baseline corrections. Once baseline corrections were processed, maximum fluorescence values were exported and data manipulated to calculate percentage activation, percentage inhibition and Z′.

S1P5 receptor = S1P5 receptor (Homo sapiens (Human), UniProt Q9H228); experiment: Antagonist assay (FLIPR TETRA, inhibition of reference agonist EC80) on S1P5; format: cell-based; settings: tested as the citrate salt
Procedure: as §1, §2, §3, §4

[1] = Blood concentrations and pharmacokinetics after 1 mg/kg i.v. in mice; format: in vivo, mouse; settings: for pharmacokinetics / blood levels following intravenous injection in mice (in words): comparison between compounds
Procedure: 1 mg/kg of the compound was injected by IV and blood was withdrawn at the times in table 1. The amount of starting compound was quantified by a standard curve using MS/MS determinations.

[2] = In vitro plasma protein binding; format: in vitro ADME, mouse; settings: mouse plasma, test concentration 5 nM
[3] = Microsomal intrinsic clearance; settings: mouse, liver microsomes, mouse microsomes, test conc. 1 μM

S1P2 receptor, sequence (O95136 whole entry): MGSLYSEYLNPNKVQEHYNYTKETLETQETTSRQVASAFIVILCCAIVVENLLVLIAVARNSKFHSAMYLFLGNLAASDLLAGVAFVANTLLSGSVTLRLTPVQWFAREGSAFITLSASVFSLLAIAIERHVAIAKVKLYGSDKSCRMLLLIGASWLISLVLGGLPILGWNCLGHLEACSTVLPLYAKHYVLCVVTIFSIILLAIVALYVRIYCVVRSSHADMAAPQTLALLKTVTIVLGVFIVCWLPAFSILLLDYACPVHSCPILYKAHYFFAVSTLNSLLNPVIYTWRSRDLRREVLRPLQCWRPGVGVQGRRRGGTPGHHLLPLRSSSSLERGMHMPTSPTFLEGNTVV
S1P5 receptor, sequence (Q9H228 whole entry): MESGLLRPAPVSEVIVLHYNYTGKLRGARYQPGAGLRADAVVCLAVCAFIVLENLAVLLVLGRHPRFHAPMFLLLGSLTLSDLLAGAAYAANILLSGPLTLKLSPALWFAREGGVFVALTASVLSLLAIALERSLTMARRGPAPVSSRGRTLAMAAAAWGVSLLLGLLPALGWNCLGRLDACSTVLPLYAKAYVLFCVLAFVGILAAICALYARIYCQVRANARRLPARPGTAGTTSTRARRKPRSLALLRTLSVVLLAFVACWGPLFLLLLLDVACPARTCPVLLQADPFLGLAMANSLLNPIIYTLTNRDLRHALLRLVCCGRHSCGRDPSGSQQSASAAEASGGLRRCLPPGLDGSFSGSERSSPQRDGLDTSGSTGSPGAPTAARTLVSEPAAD

In the case of C=CCn1nc(C)c2c(C(C)C)cc(NNC(=O)Nc3cc(Cl)nc(Cl)c3)nc21 [Compound 1], the IC50 (S1P2 receptor) is reported as 1.2 nM, the IC50 (S1P5 receptor) is reported as 2.2 nM and the AUC0-inf ([1]; mouse blood, individual mice) is reported as 92.4 ng·h/mL and 192 ng·h/mL. For the same compound, the “AUC0-inf Extrapolated” value ([1]; mouse blood, individual mice) was 19.3% and 63.8%, the AUC0-tlast ([1]; mouse blood, individual mice) was 74.6 ng·h/mL and 69.5 ng·h/mL and the AUMC0-inf ([1]; mouse blood, individual mice) was 604 h^2*ng/mL and 9010 h^2*ng/mL. For the same compound, the “AUMC0-inf Extrapolated” value ([1]; mouse blood, individual mice) was 74.1% and 98.2%, the AUMC0-tlast ([1]; mouse blood, individual mice) was 12.7 h^2*ng/mL and 157 h^2*ng/mL and 166 h^2*ng/mL and the C0 ([1]; mouse blood, individual mice) was 262 ng/mL and 251 ng/mL. For the same compound, the CL ([1]; mouse blood, individual mice) was 180 mL/min/kg and 86.7 mL/min/kg, the MRT0-inf ([1]; mouse blood, individual mice) was 6.53 h and 46.9 h and the MRT0-tlast ([1]; mouse blood, individual mice) was 0.236 h and 2.10 h and 2.39 h. For the same compound, the Terminal half-life ([1]; mouse blood, individual mice) was 9.08 h and 41.7 h, the Vss ([1]; mouse blood, individual mice) was 70.7 L/kg and 244 L/kg and the “AUC0-inf Extrapolated, Mean S.D.” value ([1]; mouse blood, mean) was 41.5 (n = 2) %. For the same compound, the “AUMC0-inf Extrapolated, Mean S.D.” value ([1]; mouse blood, mean) was 86.1 (n = 2) %, the “AUMC0-inf, Mean S.D.” value ([1]; mouse blood, mean) was 4810 (n = 2) h^2*ng/mL and the “AUMC0-tlast, Mean S.D.” value ([1]; mouse blood, mean) was 112 ± 86.0 h^2*ng/mL. For the same compound, the “C0, Mean S.D.” value ([1]; mouse blood, mean) was 295 ± 66.2 ng/mL, the “Blood Concentrations” value ([1]; mouse, 5 min, individual mice, LLOQ = 1 ng/mL) was 152 ng/mL and 143 ng/mL and the “Blood Concentrations” value ([1]; mouse, 0.25 h, individual mice, LLOQ = 1 ng/mL) was 51.2 ng/mL and 46.3 ng/mL. For the same compound, the “Blood Concentrations” value ([1]; mouse, 0.5 h, individual mice, LLOQ = 1 ng/mL) was 22.8 ng/mL and 17.1 ng/mL, the “Blood Concentrations” value ([1]; mouse, 1 h, individual mice, LLOQ = 1 ng/mL) was 7.90 ng/mL and 6.44 ng/mL and the “Blood Concentrations” value ([1]; mouse, 2 h, individual mice, LLOQ = 1 ng/mL) was 1.13 ng/mL and 3.12 ng/mL and 2.96 ng/mL. The “Blood Concentrations” value ([1]; mouse, 4 h, individual mice, LLOQ = 1 ng/mL) was “BLQ and 1.98 ng/mL”, the “Blood Concentrations” value ([1]; mouse, 6 h, individual mice, LLOQ = 1 ng/mL) was “BLQ and 2.25 ng/mL” and the “Blood Concentrations” value ([1]; mouse, 12 h, individual mice, LLOQ = 1 ng/mL) was “BLQ and 2.04 ng/mL”. For the same compound, the “pharmacokinetics / blood levels following intravenous injection in mice (in words)” value ([1]; mouse) was “substantially improved pharmacokinetics”, the “pharmacokinetics / blood levels following intravenous injection in mice (in words)” value ([1]; mouse, listed as compound 1) was “highest drug blood levels over time” and the AUC(0-t) ([1]; mouse, whole blood, iv, 1 mg/kg, mouse blood, individual mice, read-out: AUC0-tlast) was 53.9 ng·h/mL. For the same compound, the C0 ([1]; mouse, whole blood, iv, 1 mg/kg, mouse blood, individual mice, read-out: C0) was 371 ng/mL, the AUC0-inf ([1]; mouse, whole blood, iv, 1 mg/kg, mouse blood, mean, read-out: AUC0-inf, Mean S.D.) was 142 ng·h/mL and the AUC(0-t) ([1]; mouse, whole blood, iv, 1 mg/kg, mouse blood, mean, read-out: AUC0-tlast, Mean S.D.) was 66 ± 10.8 ng·h/mL. The clearance ([1]; mouse, whole blood, iv, 1 mg/kg, mouse blood, mean, read-out: CL, Mean S.D. (converted)) was 134 mL/min/kg, the MRT inf ([1]; mouse, whole blood, iv, 1 mg/kg, mouse blood, mean, read-out: MRT0-inf, Mean S.D.) was 26.7 h and the MRT last ([1]; mouse, whole blood, iv, 1 mg/kg, mouse blood, mean, read-out: MRT0-tlast, Mean S.D.) was 1.58 h. For the same compound, the half-life ([1]; mouse, whole blood, iv, 1 mg/kg, mouse blood, mean, read-out: Terminal half-life, Mean S.D. (converted)) was 25.4 h, the Vd ([1]; mouse, whole blood, iv, 1 mg/kg, mouse blood, mean, read-out: Vss, Mean S.D.) was 157 L/kg and the concentration at 5 min ([1]; mouse, whole blood, iv, 1 mg/kg, mouse, 5 min, individual mice, LLOQ = 1 ng/mL, read-out: Blood Concentrations) was 188 ng/mL. The concentration at 5 min ([1]; mouse, whole blood, iv, 1 mg/kg, mouse, 5 min, mean of 3 mice, read-out: Blood Concentrations, Mean S.D.) was 161 ± 23.8 ng/mL, the concentration at 0.25 h ([1]; mouse, whole blood, iv, 1 mg/kg, mouse, 0.25 h, individual mice, LLOQ = 1 ng/mL, read-out: Blood Concentrations) was 48.3 ng/mL and the concentration at 0.25 h ([1]; mouse, whole blood, iv, 1 mg/kg, mouse, 0.25 h, mean of 3 mice, read-out: Blood Concentrations, Mean S.D.) was 48.6 ± 2.46 ng/mL. For the same compound, the concentration at 0.5 h ([1]; mouse, whole blood, iv, 1 mg/kg, mouse, 0.5 h, individual mice, LLOQ = 1 ng/mL, read-out: Blood Concentrations) was 14.9 ng/mL, the concentration at 0.5 h ([1]; mouse, whole blood, iv, 1 mg/kg, mouse, 0.5 h, mean of 3 mice, read-out: Blood Concentrations, Mean S.D.) was 18.3 ± 4.08 ng/mL and the concentration at 1 h ([1]; mouse, whole blood, iv, 1 mg/kg, mouse, 1 h, individual mice, LLOQ = 1 ng/mL, read-out: Blood Concentrations) was 5.11 ng/mL. It also gave a concentration at 1 h ([1]; mouse, whole blood, iv, 1 mg/kg, mouse, 1 h, mean of 3 mice, read-out: Blood Concentrations, Mean S.D.) of 6.48 ± 1.4 ng/mL, a concentration at 2 h ([1]; mouse, whole blood, iv, 1 mg/kg, mouse, 2 h, mean of 3 mice, read-out: Blood Concentrations, Mean S.D.) of 2.4 ± 1.11 ng/mL and a concentration at 4 h ([1]; mouse, whole blood, iv, 1 mg/kg, mouse, 4 h, individual mice, LLOQ = 1 ng/mL, read-out: Blood Concentrations) of 2.22 ng/mL. It also gave a concentration at 4 h ([1]; mouse, whole blood, iv, 1 mg/kg, mouse, 4 h, mean (n = 2 for Cmpd-1), read-out: Blood Concentrations, Mean S.D.) of 2.1 ng/mL, a concentration at 6 h ([1]; mouse, whole blood, iv, 1 mg/kg, mouse, 6 h, individual mice, LLOQ = 1 ng/mL, read-out: Blood Concentrations) of 2.55 ng/mL and a concentration at 6 h ([1]; mouse, whole blood, iv, 1 mg/kg, mouse, 6 h, mean (n = 2 for Cmpd-1), read-out: Blood Concentrations, Mean S.D.) of 2.4 ng/mL. The concentration at 12 h ([1]; mouse, whole blood, iv, 1 mg/kg, mouse, 12 h, individual mice, LLOQ = 1 ng/mL, read-out: Blood Concentrations) was 1.36 ng/mL, the concentration at 12 h ([1]; mouse, whole blood, iv, 1 mg/kg, mouse, 12 h, mean (n = 2 for Cmpd-1), read-out: Blood Concentrations, Mean S.D.) was 1.7 ng/mL and the “mean fraction bound (%)” value [2] was 99.9%. For the same compound, the microsomal CLint at 1 μM ([3]; NADPH-dependent Clint (microsomal intrinsic clearance)) was 1170 µL/min/mg, the half-life at 1 μM ([3]; NADPH-dependent T1/2 (half-life)) was 0.0333 h and the microsomal CLint at 1 μM ([3]; NADPH-free Clint (microsomal intrinsic clearance)) was 48 µL/min/mg. For the same compound, the half-life at 1 μM ([3]; NADPH-free T1/2 (half-life)) was 0.8 h.
